Common to all, as to assay type: cell-based, Plasmodium falciparum
The subject of one assay is P. falciparum W2. Put plainly: Malaria SYBR Green Fluorescence Assay, W2 strain. Particulars: for W2: SYBR Green Assay.
The next assay has as its system P. falciparum D6. Put plainly: Malaria SYBR Green Fluorescence Assay, D6 strain. Particulars: for D6: SYBR Green Assay.
The test system of another assay is P. falciparum C235. Put plainly: Malaria SYBR Green Fluorescence Assay, C235 strain. Particulars: for C235: SYBR Green Assay.

In the assay with P. falciparum W2, `COc1ncccc1Nc1nc(NCCC2CCCN2C)nc(C(Cl)(Cl)Cl)n1` (stereo not drawn) [Cmpd 346] came in with a W2 of 52 ng/mL. The D6 in the assay on P. falciparum D6 was 62 ng/mL. Also, in the assay on P. falciparum C235, the C235 was determined as 116 ng/mL.

Consider `COc1ccc(Nc2nc(NC3CCN(C)CC3)nc(C(Cl)(Cl)Cl)n2)cn1` [Cmpd 349], for which the W2 with P. falciparum W2 is listed as 129 ng/mL. The compound further came in with a D6 with P. falciparum D6 of 124 ng/mL. In addition, in the assay on P. falciparum C235, the C235 was found to be 296 ng/mL.

For the compound `COc1ncccc1Nc1nc(NCCN2CCCC2)nc(C(Cl)(Cl)Cl)n1` [Cmpd 350], the W2 in the assay on P. falciparum W2 worked out at 467 ng/mL. The D6 in the assay with P. falciparum D6 is 560 ng/mL. For the same compound, in the assay on P. falciparum C235, the C235 is reported as 900 ng/mL.

Regarding `COc1ncccc1Nc1nc(N2CCN(C)CC2)nc(C(Cl)(Cl)Cl)n1` [Cmpd 353], the “W2 (SYBR Green Assay IC50)” value in the assay with P. falciparum W2 came out at 0.08 µg/mL. In the assay with P. falciparum D6, the “D6 (SYBR Green Assay IC50)” value worked out at 0.101 µg/mL. Further, the “C235 (SYBR Green Assay IC50)” value in the assay on P. falciparum C235 was 0.211 µg/mL.

In the case of `CCC(N)(CC)CNc1nc(-c2ccc(F)cc2)nc(C(Cl)(Cl)Cl)n1` [Cmpd 359], the “W2 (SYBR Green Assay IC50)” value in the assay on P. falciparum W2 stood at 0.051 µg/mL. In the assay on P. falciparum D6, the “D6 (SYBR Green Assay IC50)” value turned out to be 0.045 µg/mL. Moreover, in the assay with P. falciparum C235, the “C235 (SYBR Green Assay IC50)” value came out at 0.095 µg/mL.

For the compound `COc1ncccc1Nc1nc(N2CCCNCC2)nc(C(Cl)(Cl)Cl)n1` [Cmpd 378], in the assay on P. falciparum W2, the “W2 (SYBR Green Assay IC50)” value is 0.059 µg/mL. In the assay on P. falciparum D6, the “D6 (SYBR Green Assay IC50)” value turned out to be 0.05 µg/mL. Besides, the “C235 (SYBR Green Assay IC50)” value in the assay on P. falciparum C235 stood at 0.098 µg/mL.

Consider `COc1ncccc1Nc1nc(N2CCCN(C)CC2)nc(C(Cl)(Cl)Cl)n1` [Cmpd 379], for which the “W2 (SYBR Green Assay IC50)” value with P. falciparum W2 was determined as 0.092 µg/mL. For the same compound, the “D6 (SYBR Green Assay IC50)” value with P. falciparum D6 came to 0.066 µg/mL. The “C235 (SYBR Green Assay IC50)” value with P. falciparum C235 came to 0.159 µg/mL.

Regarding `CN1CCCN(c2nc(-c3ccc(F)cc3)nc(C(Cl)(Cl)Cl)n2)CC1` [Cmpd 384], in the assay with P. falciparum W2, the “W2 (SYBR Green Assay IC50)” value turned out to be 0.029 µg/mL. Moreover, in the assay on P. falciparum D6, the “D6 (SYBR Green Assay IC50)” value is 0.025 µg/mL. Besides, the “C235 (SYBR Green Assay IC50)” value in the assay with P. falciparum C235 was 0.059 µg/mL.

In the case of `CN1CCC(Nc2nc(-c3ccc(F)cc3)nc(C(Cl)(Cl)Cl)n2)CC1` [Cmpd 385], the “W2 (SYBR Green Assay IC50)” value in the assay on P. falciparum W2 was determined as 0.039 µg/mL. For the same compound, in the assay with P. falciparum D6, the “D6 (SYBR Green Assay IC50)” value is 0.028 µg/mL. In the assay on P. falciparum C235, the “C235 (SYBR Green Assay IC50)” value was found to be 0.057 µg/mL.

As to `CCC(N)(CC)CNc1nc(-c2ccc(Cl)c(Cl)c2)nc(C(Cl)(Cl)Cl)n1` [Cmpd 388], the “W2 (SYBR Green Assay IC50)” value with P. falciparum W2 stood at 0.098 µg/mL. Moreover, the “D6 (SYBR Green Assay IC50)” value in the assay on P. falciparum D6 was found to be 0.132 µg/mL. In the assay on P. falciparum C235, the “C235 (SYBR Green Assay IC50)” value worked out at 0.153 µg/mL.

On to `CC(C)(N)CNc1nc(-c2ccc(F)cc2)nc(C(Cl)(Cl)Cl)n1` [Cmpd 389], for which the “W2 (SYBR Green Assay IC50)” value in the assay with P. falciparum W2 turned out to be 0.013 µg/mL. Moreover, the “D6 (SYBR Green Assay IC50)” value in the assay with P. falciparum D6 was determined as 0.03 µg/mL. Further, the “C235 (SYBR Green Assay IC50)” value with P. falciparum C235 worked out at 0.045 µg/mL.

For the compound `CN1CCN(c2nc(-c3ccc(F)cc3)nc(C(Cl)(Cl)Cl)n2)CC1` [Cmpd 390], in the assay with P. falciparum W2, the “W2 (SYBR Green Assay IC50)” value stood at 0.143 µg/mL. Also, the “D6 (SYBR Green Assay IC50)” value with P. falciparum D6 worked out at 0.495 µg/mL. For the same compound, the “C235 (SYBR Green Assay IC50)” value in the assay on P. falciparum C235 was found to be 0.567 µg/mL.

Consider `CC1(C)CC(Nc2nc(-c3ccc(F)cc3)nc(C(Cl)(Cl)Cl)n2)CC(C)(C)N1` [Cmpd 391], for which the “W2 (SYBR Green Assay IC50)” value in the assay with P. falciparum W2 turned out to be 0.019 µg/mL. Moreover, the “D6 (SYBR Green Assay IC50)” value with P. falciparum D6 stood at 0.043 µg/mL. Moreover, the “C235 (SYBR Green Assay IC50)” value with P. falciparum C235 amounted to 0.046 µg/mL.

With `COc1ccc(-c2nc(NCC(C)(C)N)nc(C(Cl)(Cl)Cl)n2)cc1OC` [Cmpd 396], in the assay with P. falciparum W2, the “W2 (SYBR Green Assay IC50)” value stood at 0.049 µg/mL. Further, in the assay with P. falciparum D6, the “D6 (SYBR Green Assay IC50)” value came to 0.086 µg/mL. Besides, the “C235 (SYBR Green Assay IC50)” value with P. falciparum C235 was 0.117 µg/mL.

With `COc1ccc(Nc2nc(NCC(C)(C)N)nc(C(Cl)(Cl)Cl)n2)cn1` [Cmpd 403], the “W2 (SYBR Green Assay IC50)” value with P. falciparum W2 was determined as 0.078 µg/mL. Further, in the assay on P. falciparum D6, the “D6 (SYBR Green Assay IC50)” value was determined as 0.134 µg/mL. Also, in the assay on P. falciparum C235, the “C235 (SYBR Green Assay IC50)” value is 0.203 µg/mL.

For `ClC(Cl)(Cl)c1nc(NCCN2CCCC2)nc(-c2ccccc2)n1` [Cmpd 405], the “W2 (SYBR Green Assay IC50)” value in the assay with P. falciparum W2 amounted to 0.016 µg/mL. The “D6 (SYBR Green Assay IC50)” value in the assay with P. falciparum D6 stood at 0.027 µg/mL. For the same compound, the “C235 (SYBR Green Assay IC50)” value in the assay with P. falciparum C235 was found to be 0.045 µg/mL.
